Read-outs that look alike come from different tables or passages of the source.
Experiments:
[1] = system: NCI-H929 tumor xenografts; conditions: days 34, 37
Text: A product is considered to be active if log10 cell kill is greater than or equal to 0.7. A product is considered to be very active if log10 cell kill is greater than or equal to 2.8.
The combination will manifest therapeutic synergy when the log10 cell kill is greater than the value of the log10 cell kill of the best constituent administered alone at its maximum tolerated dose or at its highest dose tested.
The animals subjected to the experiment, generally mice, are subcutaneously grafted unilaterally or bilaterally with tumor cells or fragment on day 0. The animals bearing tumors are randomized based on their tumor size before being subjected to the various treatments and controls. Chemotherapy begins when tumors have reached a predetermined size after grafting, depending on the type of tumor, and the animals are observed every day. […] The groups are then weighed once or twice a week until the end of the trial.
The tumors are measured 1 to 5 times a week, depending on the tumor doubling time, until the tumor reaches approximately 750 mg, or until the animal dies (if this occurs before the tumor reaches 750 mg). The animals are necropsied immediately after euthanasia or death.
Hu38SB19 and Bortezomib treatments were started thirty four days after cell inoculation and doses were calculated based on individual animal body weights determined from the last measurement taken before dosing. Administration of PBS and hu38SB19 antibody was carried out through intraperitoneal (IP) injection and bortezomib by intravenous (IV) injection via the tail vein, using a 1.0 mL syringe fitted with a 27 gauge, ½ inch needle.
Thirty-three days after tumor cell inoculation, sixty-four mice were randomized into 8 groups (n=8) by tumor volume. […] Mice in each group were identified by a puncture in the ear.
Treatment groups included PBS control (200 μL/mouse/treatment), hu38SB19 antibody (5.0 mg/kg/treatment), bortezomib (1.0, 0.6 and 0.4 mg/kg/treatment) and three combination groups with hu38SB19 (5.0 mg/kg/treatment) and bortezomib (1.0, 0.6 and 0.4 mg/kg/treatment). PBS, hu38SB19 and bortezomib were administered twice per week for one week (days 34 and 37 for a total of 2 treatments). Treatments were started on day 34 post inoculation of tumor cells.
Tumor volumes were measured one to two times weekly in three dimensions using a caliper. The tumor volume was expressed in mm^3 (or mg) using the formula: V=Length×Width×Height×½.
Tumor Free Survivors (TFS): correspond to complete regression below the limit of palpation (63 mg) for the entire duration of the study (>100 days post last treatment).

[2] = Body weight loss as index of test agent toxicity in NCI-H929 tumor-bearing mice; assay type: in vivo, SCID mice; conditions: days 34, 37
Text: The animals subjected to the experiment, generally mice, are subcutaneously grafted unilaterally or bilaterally with tumor cells or fragment on day 0. The animals bearing tumors are randomized based on their tumor size before being subjected to the various treatments and controls. Chemotherapy begins when tumors have reached a predetermined size after grafting, depending on the type of tumor, and the animals are observed every day. The different animal groups are weighed daily during treatment until the maximum weight loss is reached and subsequent full weight recovery has occurred. The groups are then weighed once or twice a week until the end of the trial.
Body weights were measured twice per week as a rough index of test agent toxicity. Tumor volume and body weight were determined and recorded by Labcat software.
Toxicity was declared at dosages inducing 20% body weight loss or 10% drug death, […]

[3] = Bortezomib IV 0.4 mg/kg/injection (total 0.8)
[4] = Bortezomib IV 0.4 mg/kg/injection (total 0.8), 0.4 mg/kg
[5] = Bortezomib IV 0.4 mg/kg/injection (total 0.8), listed as bortezomib, 0.4 mg/kg
[6] = Bortezomib IV 0.6 mg/kg/injection (total 1.2)
[7] = Bortezomib IV 0.6 mg/kg/injection (total 1.2), 0.6 mg/kg
[8] = Bortezomib IV 0.6 mg/kg/injection (total 1.2), listed as bortezomib, 0.6 mg/kg
[9] = Bortezomib IV 1.0 mg/kg/injection (total 2.0)
[10] = Bortezomib IV 1.0 mg/kg/injection (total 2.0), 1 mg/kg
[11] = Bortezomib IV 1.0 mg/kg/injection (total 2.0), listed as bortezomib, 1 mg/kg

For `CC(C)C[C@H](NC(=O)[C@H](Cc1ccccc1)NC(=O)c1cnccn1)B(O)O` [Bortezomib, [(1R)-3-methyl-1-({(2S)-3-phenyl-2-[(pyrazin-2-ylcarbonyl)amino]propanoyl}amino)butyl]boronic acid], the “T-C in days (tumor growth delay)” value [1, 3] was 7 days, the “Time for median tumor to reach 750 mg” value [1, 3] was 69 days and the log cell kill [1, 3] was 0.1. For the same compound, the “% T/C” value [1, 4] was 74%, the “Comments (anti-tumor activity rating)” value [1, 4] was “Inactive” and the “TFS at day 176 (tumor free survivors)” value [1, 4] was 1/8. For the same compound, the “% T/C” value [1, 5] was 45%, the “Comments (anti-tumor activity rating)” value [1, 5] was “inactive” and the “TFS at day 176 (tumor free survivors)” value [1, 5] was “single TFS”. For the same compound, the “T-C in days (tumor growth delay)” value [1, 6] was 18 days, the “Time for median tumor to reach 750 mg” value [1, 6] was 80 days and the log cell kill [1, 6] was 0.3. The “% T/C” value [1, 7] was 45%, the “Comments (anti-tumor activity rating)” value [1, 7] was “Inactive” and the “TFS at day 176 (tumor free survivors)” value [1, 7] was 0/8. For the same compound, the “% T/C” value [1, 8] was 75%, the “Comments (anti-tumor activity rating)” value [1, 8] was “inactive” and the “TFS at day 176 (tumor free survivors)” value [1, 8] was “No TFS”. For the same compound, the “% T/C” value [1, 9] was 15%, the “T-C in days (tumor growth delay)” value [1, 9] was 37 days and the “Time for median tumor to reach 750 mg” value [1, 9] was 99 days. For the same compound, the log cell kill [1, 9] was 0.6, the “Comments (anti-tumor activity rating)” value [1, 10] was “Active” and the “TFS at day 176 (tumor free survivors)” value [1, 10] was 2/8. For the same compound, the “Comments (anti-tumor activity rating)” value [1, 11] was “somewhat active”, the “TFS at day 176 (tumor free survivors)” value [1, 11] was 2 and the “Average body weight loss in % per mouse at nadir (day of nadir)” value (“Average body weight loss in % per mouse” below) ([2]; Bortezomib IV 0.4 mg/kg/injection (total 0.8), nadir d36) was 0.8 (d36) %. For the same compound, the “Average body weight loss in % per mouse” value ([2]; Bortezomib IV 0.6 mg/kg/injection (total 1.2), nadir d40) was 0.6 (d40) % and the “Average body weight loss in % per mouse” value ([2]; Bortezomib IV 1.0 mg/kg/injection (total 2.0), nadir d36) was 7.0 (d36) %.
